Assay results published in ChEMBL document CHEMBL3638589, “Tricyclic derivative or pharmaceutically acceptable salts thereof, preparation method thereof, and pharmaceutical composition containing the same” (2014).

These compounds were tested against Poly [ADP-ribose] polymerase 1 (Homo sapiens, UniProt P09874) (assay: Enzyme Inhibitory Assay: The activity of the compounds according to the present invention to inhibit the PARP-1 enzyme was examined using a PARP Assay kit (4671-096-K) purchased from Trevigen. The assay was performed following a modified previously reported method by Lee et al [Methods Find, Exp. Clin. Pharmacol., 27, 617-622, 2005].Histone was coated on 384-well plate, which is a small volume PS plate (784101) of Greiner Bio-One, and left at 25 C. for 2 hours. After that, the plate was rinsed four times with PBS (7.5 mM Na2HPO4, 2.5 mM NaH2PO4, 145 mM NaCl, pH 7.4), and in order to prevent non-specific reaction, the Strep-diluent (provided from kit of Trevigen) was added and left at 25 C. for one hour. After one hour, the plate was again rinsed with PBS four times, and the compounds of the Examples in various concentrations were put into reactant containing PARP-1 enzyme (0.12 unit/well), 2x PARP cocktail.).
Chain of Poly [ADP-ribose] polymerase 1 (P09874 whole entry): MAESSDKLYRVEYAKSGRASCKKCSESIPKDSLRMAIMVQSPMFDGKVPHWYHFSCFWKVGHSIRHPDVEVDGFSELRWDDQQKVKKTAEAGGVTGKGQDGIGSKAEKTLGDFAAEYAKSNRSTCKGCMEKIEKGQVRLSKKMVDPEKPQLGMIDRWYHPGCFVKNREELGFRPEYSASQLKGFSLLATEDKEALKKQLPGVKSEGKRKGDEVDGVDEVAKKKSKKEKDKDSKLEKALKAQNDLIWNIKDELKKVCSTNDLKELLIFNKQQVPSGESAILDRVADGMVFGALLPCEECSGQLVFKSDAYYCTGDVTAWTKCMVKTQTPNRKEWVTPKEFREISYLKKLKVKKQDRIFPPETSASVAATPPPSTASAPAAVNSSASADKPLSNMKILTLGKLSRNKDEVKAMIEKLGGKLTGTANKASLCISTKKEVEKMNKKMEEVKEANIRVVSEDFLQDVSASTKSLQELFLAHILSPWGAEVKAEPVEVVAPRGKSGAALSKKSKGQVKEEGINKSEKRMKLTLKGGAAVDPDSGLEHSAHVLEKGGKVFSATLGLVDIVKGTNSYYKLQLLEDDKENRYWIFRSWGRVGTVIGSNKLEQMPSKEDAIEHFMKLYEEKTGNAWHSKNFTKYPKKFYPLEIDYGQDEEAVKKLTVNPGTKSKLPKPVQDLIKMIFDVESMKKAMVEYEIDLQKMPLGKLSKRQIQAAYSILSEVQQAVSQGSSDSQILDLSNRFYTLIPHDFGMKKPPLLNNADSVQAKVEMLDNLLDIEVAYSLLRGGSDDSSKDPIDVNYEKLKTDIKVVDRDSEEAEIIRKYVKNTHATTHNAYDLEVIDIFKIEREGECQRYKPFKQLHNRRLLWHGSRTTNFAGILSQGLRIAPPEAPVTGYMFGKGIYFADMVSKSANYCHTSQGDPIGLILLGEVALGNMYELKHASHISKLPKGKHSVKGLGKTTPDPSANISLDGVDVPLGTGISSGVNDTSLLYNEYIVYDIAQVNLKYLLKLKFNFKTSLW

Structure (SMILES) | IC50 [nM]
CN(C)CCOc1ccc2c3c(c(=O)[nH]c2c1)CCCN3 | 1620
CN(C)Cc1cc(O)c2c3c(c(=O)[nH]c2c1)CCCN3 | 750
COc1cc(C[N+](C)(C)C2CCCC2)cc2[nH]c(=O)c3c(c12)NCCC3 | 290
